Test results: BindingDB's records for doi:10.7270/Q25D8Q92 (Burnham Center For Chemical Genomics, 2011)
pIC50: −log10 of the molar value.

Each molecule was assayed against T1, Bcl-2-related protein A1 (Mus musculus, UniProt Q07440) (assay: Bfl-1 inhibitors in counterscreen, dose response, biochemical (AID 504689)).
T1 sequence (Q07440 whole entry): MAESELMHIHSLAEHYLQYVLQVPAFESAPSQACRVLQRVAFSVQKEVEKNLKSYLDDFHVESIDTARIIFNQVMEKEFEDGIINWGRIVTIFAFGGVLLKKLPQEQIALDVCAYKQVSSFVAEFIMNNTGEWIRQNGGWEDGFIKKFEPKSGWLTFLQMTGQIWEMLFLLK
In the case of `C#CCOCCOCCOCCNc1nc(N2CCN(C(=O)CCCCCCCCCCNC(=O)[C@H](CO)n3cc(CCCSC)nn3)CC2)nc(N2CCN(C(=O)CCCCCCCCCCNC(=O)[C@H](CCCCN)n3cc(CCO)nn3)CC2)n1` [SMR001318322], the pIC50 was 4.85. `COCCNC(=S)NN=C1C(=O)Nc2ccc([N+](=O)[O-])cc21` [1-(2-methoxyethyl)-3-[(5-nitro-2-oxoindol-3-yl)amino]thiourea] was tested, and the pIC50 was < 4.70. With `C#CCOCCOCCOCCNc1nc(N2CCN(C(=O)CCCCCCCCCCNC(=O)[C@@H](CCC(=O)O)n3cc(CCCCCN)nn3)CC2)nc(N2CCN(C(=O)CCCCCCCCCCNC(=O)[C@H]([C@@H](C)CC)n3cc(CCCCCN)nn3)CC2)n1` [KI-KE] the pIC50 was < 4.70. `C#CCOCCOCCOCCNc1nc(N2CCN(C(=O)[C@H](CCCCN)n3cc([C@@H](N)C(C)CC)nn3)CC2)nc(N2CCN(C(=O)[C@H](Cc3cc4ccccc4[nH]3)n3cc([C@@H](N)C(C)CC)nn3)CC2)n1` (stereo not given in full) [MLS000562580] was tested, and the pIC50 was < 4.70. `CCOc1ccc(-c2csc(NC(=O)c3cccc(-n4c(O)ccc4O)c3)n2)cc1` [SMR000319795] was tested, and the pIC50 was < 4.70. `CC1=CC(C)(C)N2C(=O)/C(=N\NC(N)=S)c3cccc1c32` [SMR000218901] was tested, and the pIC50 was < 4.70. With `CCCCNC(=S)N/N=C1\C(=O)Nc2ccccc21` [1-butyl-3-[(2-oxidanylideneindol-3-yl)amino]thiourea] the pIC50 was < 4.70. In the case of `C#CCOCCOCCOCCNc1nc(N2CCN(C(=O)CCCCCCCCCCNC(=O)[C@H](CCCCN)n3cc(CCO)nn3)CC2)nc(N2CCN(C(=O)CCCCCCCCCCNC(=O)[C@H](CCCCN)n3cc(CCO)nn3)CC2)n1` [MLS002153615], the pIC50 was < 4.70. In the case of `C#CCOCCOCCOCCNc1nc(N2CCN(C(=O)CCCCCCCCCCNC(=O)[C@H]([C@@H](C)CC)n3cc(CCCCN=C(N)N)nn3)CC2)nc(N2CCN(C(=O)CCCCCCCCCCNC(=O)[C@@H]([C@H](C)O)n3cc(C)nn3)CC2)n1` [GT-RI], the pIC50 was < 4.70. In the case of `C#CCOCCOCCOCCNc1nc(N2CCN(C(=O)CCCCCCCCCCNC(=O)[C@@H](CCSC)n3cc(CCO)nn3)CC2)nc(N2CCN(C(=O)CCCCCCCCCCNC(=O)[C@H](CCC(=O)O)n3cc(CCCCCN)nn3)CC2)n1` [MLS002153730], the pIC50 was < 4.70.
